Consider 23 compounds from patent US9624235B2, “Compounds and methods for inhibition of AP endonuclease-1/redox factor-1 (HAPE1) activity” (University of Pittsburgh—Of the Commonwealth System of …, priority 2012, dated 2017).

As a reminder, the Ki is a dissociation constant, usually derived from enzyme kinetics or from competition with a known ligand. What is called IC50 is the concentration at which inhibition is half-maximal.

Assay [1] has as its system T98G cells. Briefly: Short term (72 h) MTS cytotoxicity assay. The assay is classed as cell-based, human. To be noted: 72 h MTS assay. The procedure:
(§1) Cytotoxic Effects of APE-1 Inhibitors on Cultured Human Glioblastoma (T98G) Cells. Human glioblastoma cells (T98G) were maintained in growth medium as described above. […] The cells were allowed to attach and grow for 24 h, and then treated with serial dilutions of the drug for 72 h. After treatment, viable cells were measured by an MTS assay using the CellTiter 96 AQueous kit (Promega) as per manufacturer's instructions. […] The cells were allowed to attach and grow for 24 h and treated with serial dilutions of the drug for 240 h. After treatment, viable cells were measured using the CyQUANT cell proliferation assay kit (Invitrogen) as per manufacturer's instructions.
(§2) Toxicity. It was assumed that inhibition of APE-1 activity would be lead to toxicity since genetic deletion of the protein is lethal to cells. […] The toxicities were also determined in combination with the DNA minor groove methylating agent, MeLex. MeLex efficiently and selectively generates N3-methyladenine, which is converted into an abasic site by a BER glycosylase and/or hydrolytic depurination. The T98G cell line is relatively resistant to DNA damaging anticancer agents due to expression of multiple drug resistance proteins and O^6-alkylguanine-DNA alkyltransferase. […] A goal of the development of APE-1 inhibitors is to determine if they can be used to enhance the activity of DNA alkylating agents.

Assay [2] deals with T98G cells. As to the kind of experiment: Long term (10-day) CyQUANT cytotoxicity assay. It is filed as cell-based, human. To be noted: long term assay. The procedure:
as §1, §2

For assay [3], the target named is T1, APE-1 (Homo sapiens (Human), UniProt P27695). Briefly: Molecular beacon assay for APE-1 endonuclease inhibition. It is filed as biochemical. As to conditions: molecular beacon assay, endonuclease activity. The text has this: Screening Assays for APE1 Inhibition—The initial screen was designed to look at the effect of potential inhibitors on APE1 repair kinetics. The approach can be used as a high throughput screen by choosing a specific timepoint to monitor. The screen utilizes a molecular beacon with a tetrahydrofuran (THF) abasic site within the stem region of a DNA hairpin that has a fluorophore on the 5′-terminus and a quencher on the 3′-terminus (FIG. 2a). […] An example of the molecular beacon screen and the excision assay are shown in FIGS. 2b,c and 2d, respectively.
T1 sequence (P27695 whole entry): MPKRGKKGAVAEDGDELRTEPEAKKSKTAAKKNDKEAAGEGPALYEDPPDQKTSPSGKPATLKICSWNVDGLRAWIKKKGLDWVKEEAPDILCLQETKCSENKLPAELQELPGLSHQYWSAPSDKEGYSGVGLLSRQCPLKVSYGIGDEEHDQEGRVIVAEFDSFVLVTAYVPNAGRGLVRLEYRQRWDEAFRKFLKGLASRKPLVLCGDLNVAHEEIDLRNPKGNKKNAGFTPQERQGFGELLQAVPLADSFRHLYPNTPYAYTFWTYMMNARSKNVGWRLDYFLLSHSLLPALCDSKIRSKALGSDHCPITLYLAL
Molecular Beacon Assay for Screening of APE-1 Inhibitors. A fluorescence-based molecular beacon assay to measure APE-1 protein activity and inhibition was performed as described previously with some modifications. Tang et al. Neuro Oncol. 13, 471-486 (2011) APE-1 (2 nM) in 10 mM HEPES (pH 7.8) 0.5 mM MgCl, 100 mM NaCl, 100 mM KCl, 0.0005% (w/v) BSA, was incubated with 20 nM 5′-(F)-CGACTXTTGAATTGACACGCCATGTCGATCAATTCAATAGTCG-(D)-3′ [X=tetrahydrofuran (THF) abasic site modification; F, 6-carboxyfluorescein (6-FAM); and D, DABCYL] that forms a hairpin with a 15 base pair stem and a 13 base loop. The THF modification is a known substrate for APE-1 excision. APE-1 mediated cleavage of the phosphodiester backbone at the THF-abasic site led to release of the 5′ 6-FAM (fluorophore) containing pentanucleotide, disrupting the Förster Resonance Energy Transfer (FRET) mediated quenching of the 6-FAM by DABCYL in the native hairpin oligomer. Since the signal was generated by continuous liberation of the fluorophore-labeled excision fragment, progress of this reaction could be monitored in real-time using a Cary Eclipse fluorescence spectrometer (Varian, Palo Alto, Calif.) or a Synergy H1 multi-well plate reader (BioTek, Winooski, Vt.). Reactions were optimized to yield ˜90% substrate turnover in 10 min, and fluorescence intensities measured every 12 s at 495 nm excitation and 520 nm emission. Data from the first 1-3 min of the assays (linear phase) were used to determine rate of substrate turnover (V0). The Michaelis constant (KM) was deduced experimentally, by incubating 2 nM APE-1 protein with 2-500 nM hairpin DNA substrate and measuring V0 —the experimentally observed V0 were analyzed as a function of substrate concentration [S] via non-linear regression using Prism (v.4; GraphPad Software, Inc., La Jolla, Calif.) and the KM was calculated as per the algorithm in the software package. To assay inhibition, 2 nM APE-1 protein was pre-incubated with 0.05-10.00 μM of the candidate inhibitors at 25° C. for 60 min, before initiating the excision assay by addition of hairpin DNA substrate. V0 was calculated at various concentrations of inhibitors and represented as inverse function of increasing inhibitor concentration [I]. […] All assays were carried out in three independent sets to obtain mean data and standard error of mean.
(§3) Screening for APE-1 Inhibitors. […] In this assay, the DNA hairpin substrate has a 6-FAM fluorophore on the 5′-terminus, a DABACYL fluorescence quencher on the 3′-terminus and a THF abasic site located 6 base pairs from the 5′-terminus in the stem region (FIG. 6). APE-1 activity is monitored as an increase in fluorescence due to the release of the 5′-(6-FAM)-GCACT fragment as a function of time. […] In this assay, substrate turnover was calculated from relative intensities of cleaved vs. intact oligomers and correlated with inhibitor concentration.

Assay [4] concerns the target APE-1 activity in T98G cell nuclear lysates (Homo sapiens (Human), UniProt P27695). Briefly: Molecular beacon assay in T98G cell nuclear extracts. It is filed as biochemical. The procedure: Isolation and Assay of APE-1 Protein from Nuclear Extracts of Glioma Cells. Human glioblastoma cells (T98G) were maintained in growth medium, i.e., Eagle's Minimum Essential Medium (EMEM) with 10% fetal bovine serum (FBS), […] gentamycin, 1×MEM non-essential amino acids and 1 mM sodium pyruvate. Cells were harvested by Trypsin-EDTA treatment, washed with 1×PBS and nuclear proteins isolated using the CelLytic NuCLEAR Extraction kit (Sigma-Aldrich) as per manufacturer's instructions. Isolated nuclear proteins were estimated colorimetrically (BCA protein assay) and stored at −80° C. (long term) or at −20° C. during regular use. To assay APE-1 activity in T98G cells, nuclear extracts were serially diluted in 10 mM HEPES, 50 mM KCl, 1 mM DTT, 20% (v/v) glycerol and the activities measured via the molecular beacon assay (as described above). […] EC2 nM of nuclear extracts was incubated with 2 to 500 nM hairpin DNA substrate and the V0 measured for each value of [S]. Finally, the apparent KM* was deduced using the software algorithm in Prism (as described previously), and the KM* was used to determine the apparent Ki*. Inhibition of EC2 nM APE-1 activity by the inhibitors was assayed via the molecular beacon assay (described above).
Inhibition of APE-1 Activity in Nuclear Lysates. The ability of 1-5 and 8 to block APE-1 endonuclease activity in a complex mixture of proteins from T98G cell nuclear lysates was tested using the molecular beacon assay. The APE-1 activity in the lysates was standardized to give ˜90% turnover of 25 nM substrate in 10 min.

For assay [5], the system named is aldehyde reactive sites in genomic DNA from T98G cells. It is filed as cell-based, human.
Protocol: Quantification of Abasic Sites. T98G cells maintained in growth medium, were harvested by Trypsin-EDTA treatment, resuspended in fresh growth medium at a density of 2.5×10^5 cells mL^−1, and 2 mL (5×10^5 cells) of this suspension was seeded into the wells of a sterile 6-well tissue culture plate. Cells were allowed to grow for 24 h, treated with the various compounds for different time points and/or at different concentrations. At the end of each treatment, adherent cells were harvested by trypsin-EDTA treatment and pooled with live and dead cells in culture supernatant. Pooled cells in suspension were pelleted by centrifugation, washed with 1×PBS and genomic DNA was isolated using the DNAzol reagent (Invitrogen). DNA in solution was quantified by UV absorbance (λ260 nm) using a Synergy H1 multiwell plate reader (BioTek, Winooski, Vt.). Abasic sites in purified DNA were then reacted with the biotin-conjugated aldehyde reactive probe (ARP), immobilized onto 96-well ELISA plates, and detected using horseradish peroxidase (HRP)-conjugated streptavidin using a colorimetric substrate as per manufacturer's instructions (Dojindo Molecular Technologies, Rockville, Md.).
The biotin tagged ARS are quantified using an avidin-biotin assay, followed by colorimetric detection with horseradish peroxidase conjugated to avidin.
For assay [6], the system named is T98G cells. As to the kind of experiment: Potentiation of MeLex cytotoxicity, long term (10 d) CyQUANT assay. It is filed as cell-based, human. On the procedure:
(§4) Cytotoxic Potentiation of Various DNA Damaging Agents. T98G cells maintained in growth medium were resuspended in fresh growth medium and seeded into 96-well plates at 2000 cells/well (short term cytotoxicity) or 100 cells/well (long term cytotoxicity) as described in the previous section. After 24 h, the cells were treated with serial dilutions of various DNA damaging drugs in absence or presence of APE-1 inhibitors. At the end of the treatment period, cell survival was assayed using CellTiter 96 AQueous or CyQUANT kits for the short- and long-term studies respectively.
as §2

Assay [7] deals with T1, APE-1. Briefly: Gel-based excision assay for APE-1 inhibitors. It is filed as biochemical. As to conditions: APE-1 cleaved fragment vs. full length DNA substrate. On the procedure:
as §3

Assay [8] deals with T98G cells. Briefly: Potentiation of MeLex cytotoxicity, short term (72 h) MTS assay. To be noted: 72 h MTS assay. The assay is classed as cell-based, human. The procedure:
as §4, §2
In general terms: Tetrazolium dyes change colour on reduction, which living cells bring about.

Where [9] appears, read: read-out: Ki APE-1 endonuclease inhibition.
The mark [10] stands for this setting: read-out: Ki APE-1 endonuclease inhibition (ND classes).

Molecules are shown by their SMILES. Like-named read-outs stand apart in the source and are kept apart here. Where a SMILES comes first, the peptide text is derived from it. The star is where a group is joined. Tos = Cc1ccc(S(=O)(=O)*)cc1; Bn = c1ccc(C*)cc1

Chain of APE-1 activity in T98G cell nuclear lysates (P27695 whole entry, stated change not applied): as the sequence (P27695 whole entry) above

As to `C/C(=N\Nc1cc(C)nc2cc3c(cc12)OCO3)c1cn(C)n(-c2ccccc2)c1=O` [Compound 1], the figures for the LD10 concentration with T98G cells [1] and in the assay with T98G cells [2] were 2.20 µM and 0.17 µM, respectively. Moreover, the Ki on APE-1 [3] (setting [9]) turned out to be 0.18 µM; in assay [4], 0.45 µM. Further, the “level of ARS in combination with MeLex” value in assay [5] (80 μM MeLex + 0.25 μM inhibitor, through at least 12 h) is reported as 50 sites/10^5 nucleotides. Also, the “LD50 of MeLex in the presence of LD10 concentration of inhibitor” value turned out to be 2.0 µM in the assay with T98G cells [6] and 54 µM in the assay with T98G cells [8]. In addition, it took 4.4 µM to reach half-maximal inhibition against APE-1 [7] (IC50).
As for `COc1cccc(/C=N/Nc2cc(C)nc3cc4c(cc23)OCO4)c1` [Compound 2], the inhibitory constant (Ki) was 0.22 µM on APE-1 [3] (setting [9]) and 0.24 µM in assay [4]. The IC50 against APE-1 [7] was determined as 10.1 µM.
For `Cc1cc(N/N=C/c2ccc([N+](=O)[O-])o2)c2cc3c(cc2n1)OCO3` [Compound 6], at APE-1 [3] (setting [9]), the inhibitory constant (Ki) was 0.64 µM.
For `C/C(=N\Nc1cc(C)nc2ccc(C)cc12)c1cn(C)n(-c2ccccc2)c1=O` [Compound 7], the inhibition constant Ki at APE-1 [3] (setting [9]) came to 10.9 µM.
For the compound `C/C(=N\Nc1cc(C)c2ccccc2n1)c1cn(C)n(-c2ccccc2)c1=O` [Compound 8], at APE-1 [3] (setting [10]), the Ki was greater than 100 µM. In addition, the “effect on ARS” value in assay [5] (0.25 μM compound alone) was “same as background”. The compound further showed an IC50 against APE-1 [7] greater than 100 µM.
Take `C=C(C[N+](=O)[O-])NC(CCCCNc1ccc([N+](=O)[O-])cc1N(O)O)C(=O)O` (stereo not shown) [Compound 9]: at APE-1 [3] (setting [9]), the Ki came out at 13 µM.
Consider `C/C=C/C(=O)NCCCCNC(=O)/C=C/c1ccc([N+](=O)[O-])cc1` [Compound 10], for which, at APE-1 [3] (setting [9]), the Ki was found to be 17 µM.
Still for that read-out and setting: for `COc1ccc(/C(Cc2ccccc2)=N\Nc2ccc([N+](=O)[O-])c([N+](=O)[O-])c2)cc1` [Compound 11] the value was 6.7 µM; for `COc1ccc(C2C3=C(CC(C)(C)CC3=O)Oc3cc4c(cc32)OCO4)c(OC)c1` (stereo not shown) [Compound 12], 32 µM; for `N=c1[nH]nc2nc(CC(=O)c3ccccc3[N+](=O)[O-])c(CC(=O)c3ccccc3[N+](=O)[O-])nn12` [Compound 13], 4.9 µM.
Same read-out and setting: for `O=C(/C=C(/Nc1ccccc1)C(=O)c1ccccc1)c1ccccc1` [Compound 14] the value was 37 µM.
Regarding `O=C(NNc1ccnc2cc(Cl)ccc12)/C(=C/c1ccccc1Cl)NC(=O)c1ccccc1` [Compound 15], the Ki at APE-1 [3] (setting [10]) was greater than 100 µM.
On the same count and under the same terms, as for `Nc1ncnc2c1ncn2C1OC(C(=O)NCC(=O)O)C(O)C1O` (stereo not shown) [Compound 16], the figure is greater than 100 µM.
Same read-out and setting: as for `CC(N)C(=O)NC1C(CO)OC(n2cnc3c(N)ncnc32)C1O` (stereo not shown) [Compound 17], the figure is greater than 100 µM; as for `O=C(O)CC1(CC(=O)NCCc2c[nH]c3ccccc23)OCCO1` [Compound 18], greater than 100 µM.
Same read-out and setting: for `O=C(O)C(Cc1c[nH]c2ccc(O)cc12)NCC1(O)OCC(O)C(O)C1O` (stereo not shown) [Compound 19] the value was greater than 100 µM; for `Cn1c(=N)[nH]c2c(nc(OCc3ccccc3)n2C2OC(O)C(O)C2O)c1=O` (stereo not shown) [Compound 21], greater than 100 µM.
Take `CC(NC(=O)/C(=C/c1ccccc1)NC(=O)c1ccccc1)c1ccccc1` (stereo not shown) [Compound 22]: on APE-1 [3] (setting [10]), the Ki was greater than 100 µM.
Still for that read-out and setting: as for `Cc1ccc(S(=O)(=O)NC(CSCc2ccccc2)C(=O)NC(Cc2ccc(O)cc2)C(=O)O)cc1` (stereo not shown) [Compound 25] (Tos-Cys(Bn)-Tyr-OH; configuration not given here), the figure is greater than 100 µM; as for `CCOC(=O)CC/C(=C\NC(=O)c1ccccc1)NC(=O)c1ccccc1` [Compound 26], greater than 100 µM.
Still for that read-out and setting: for `Cc1cc2cc3c(cc2n2c(SCC(=O)N4c5ccccc5CCc5ccccc54)nnc12)OCO3` [Compound 28] the value was greater than 100 µM; for `CCc1cc2cc(C)c(C)cc2nc1SCC(=O)N1CCN(C(=O)c2ccco2)CC1` [Compound 29], greater than 100 µM.
Still for that read-out and setting: as for `CC(=O)N1N=C(c2cccc(NS(C)(=O)=O)c2)CC1c1cc2cc(C)c(C)cc2nc1Cl` (stereo not shown) [Compound 30], the figure is greater than 100 µM.
